From PubChem BioAssay AID608 (Sanford-Burnham Center for Chemical Genomics, 2007)
Activity calls are given as the source filed them. How the calls were made is not given here.

molecular target: Peptidyl-prolyl cis-trans isomerase FKBP1A (Homo sapiens) (UniProt P62942); test: FKBP12 binders, biophysical, NMR detection (AID 608); details: NMR binding, purified FKBP12
Sequence (P62942 whole entry, looked up): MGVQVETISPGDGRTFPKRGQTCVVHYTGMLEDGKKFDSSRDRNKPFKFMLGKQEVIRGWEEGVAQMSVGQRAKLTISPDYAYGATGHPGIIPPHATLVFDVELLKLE

Row | SMILES | Kd
1 | COc1ccc([C@@H]2CC(=O)c3c(O)cc(O)cc3O2)cc1O | > 4 mM (inactive)
2 | CC1(C)Oc2ccc(N)cc2O1 | > 4 mM (inactive)
3 | C[C@@H]1CC[C@@]2(OC1)O[C@H]1CC3C4CC[C@H]5C[C@@H](O)CC[C@]5(C)C4CC[C@]3(C)[C@H]1[C@@H]2C (some centres not stated) | > 4 mM (inactive)
4 | CC(C)n1c(Nn2cnnc2)nc2ccccc21 | > 4 mM (inactive)
5 | O=C(OCc1c(F)cccc1Cl)c1cnccn1 | > 4 mM (inactive)
6 | Cc1ccc(/C=C2/C(=O)N=C(N)N2C)s1 | > 4 mM (inactive)
7 | OC1CCNC2CCCCC12 (configuration not stated) | > 4 mM (inactive)
8 | Cc1c(/C=N/O)cnn1C | > 4 mM (inactive)
9 | COC(=O)CSc1nc(N)cc(=O)[nH]1 | > 4 mM (inactive)
10 | Cc1ccccc1N1C(=O)CC(=O)NC1=O | > 4 mM (inactive)
11 | O=C(c1ccc2c(c1)OCO2)N1CCC2(CC1)OCCO2 | > 4 mM (inactive)
12 | O=C(O)c1cccc(O)c1O | > 4 mM (inactive)
13 | CN(C)C(=O)c1ccccc1-c1ccccc1 | > 4 mM (inactive)
14 | OCc1nc2ccccc2s1 | > 4 mM (inactive)
15 | Cc1n[nH]c(C)c1CC(=O)O | > 4 mM (inactive)
16 | C[C@]12CC(=O)C3C(CC[C@@H]4C[C@H](O)CC[C@]34C)C1CC[C@]2(O)C(=O)CO (some centres not stated) | > 4 mM (inactive)
17 | c1ccc(Cc2nnc3sc(-c4ccncc4)nn23)cc1 | > 4 mM (inactive)
18 | O=C(c1sc2cc(Cl)ccc2c1Cl)N1CCOCC1 | inactive
19 | Nn1cnn2c(SCc3ccccc3)nnc12 | > 4 mM (inactive)
20 | O=C(O)Cn1c(=O)sc2ccccc21 | > 4 mM (inactive)
21 | Cc1ccc2c(c1)CC[C@H]1CC(=O)CC[C@]21C | > 4 mM (inactive)
22 | NC(=O)CSc1nnc(-c2ccncc2)o1 | > 4 mM (inactive)
23 | Cc1nc2ccccc2c(=O)n1CCCn1ccnc1 | > 4 mM (inactive)
24 | COC(=O)N(c1ccccc1)P1(=S)OCCO1 | > 4 mM (inactive)
25 | CC1(C)CC(NC(=O)/C=C/C(=O)O)CC(C)(C)N1 | > 4 mM (inactive)

Row | SMILES | Kd
26 | Cc1cccc(NC(=O)c2ccccc2C(=O)O)c1 | > 4 mM (inactive)
27 | Cc1ccc(SCC(=O)N2CC(C)OC(C)C2)cc1 (configuration not stated) | inactive
28 | Cn1cnc2cc(NC(=O)c3ccco3)ccc21 | > 4 mM (inactive)
29 | CSc1nc(NC(C)C)nc(N2CCOCC2)n1 | > 4 mM (inactive)
30 | Cc1cc(C(=O)c2c(C)nn(C)c2Cl)n(C)n1 | > 4 mM (inactive)
31 | O=S(=O)(Nc1cccc2cn[nH]c12)c1ccc(F)cc1 | > 4 mM (inactive)
32 | Cc1nn(C)c(Cl)c1C(O)c1c(C)nn(C)c1Cl | > 4 mM (inactive)
33 | OCC1CCCC1O (configuration not stated) | > 4 mM (inactive)
34 | OCC1=Cc2ccccc2OC1 | > 4 mM (inactive)
35 | Cc1ccc(-c2nn(C)c(=O)c3ccccc23)cc1CO | > 4 mM (inactive)
36 | Nc1ccc(-c2cnco2)cc1 | > 4 mM (inactive)
37 | NC(=O)c1ccsc1N | > 4 mM (inactive)
38 | Cc1cc(C)n(S(=O)(=O)c2cc(C)c(C)cc2C)n1 | > 4 mM (inactive)
39 | COc1cc2occc2c2oc(=O)ccc12 | > 4 mM (inactive)
40 | CC(NC(=O)c1ccco1)C1CCCO1 (configuration not stated) | > 4 mM (inactive)
41 | O=c1c(-c2cc(O)c(O)c(O)c2)coc2cc(O)c(O)c(O)c12 | > 4 mM (inactive)
42 | COC(=O)CSc1n[nH]c(N)n1 | > 4 mM (inactive)
43 | CCCc1cc(=O)[nH]c2nnc(SCC(C)=O)n12 | > 4 mM (inactive)
44 | N#Cc1c(N)c(C(=O)c2ccccc2)n2c1CCC2 | > 4 mM (inactive)
45 | Oc1ccc2c(c1)OCO2 | > 4 mM (inactive)
46 | CC1=CCc2c(cc3oc(C)cc(=O)c3c2O)OC1 | > 4 mM (inactive)
47 | O=C(O)CS(=O)(=O)c1ccccc1 | > 4 mM (inactive)
48 | CP(C)(=O)CCC(=O)O | > 4 mM (inactive)
49 | CC1(C)Cn2c(nnc2-c2ccccc2)S1 | > 4 mM (inactive)
50 | CC1CC[C@@]2(OC1)O[C@H]1CC3C4CC[C@@H]5C[C@@H](O)CC[C@]5(C)C4CC[C@]3(C)[C@H]1[C@@H]2C (some centres not stated) | > 4 mM (inactive)

Row | SMILES | Kd
51 | CC1CN(C(=O)COc2ccccc2Cl)CC(C)O1 (configuration not stated) | > 4 mM (inactive)
52 | C=C1C(=O)OC2CC1C(OC(C)=O)C/C(C)=C/CC/C(C)=C/CC[C@]2(C)O (some centres not stated) | > 4 mM (inactive)
53 | C[C@H]1[C@H](C)CC[C@]2(CO)CC[C@]3(C)C(=CCC4[C@@]5(C)CC[C@H](O)C(C)(C)C5CC[C@]43C)[C@H]12 (some centres not stated) | > 4 mM (inactive)
54 | COc1ccc(OCC(=O)N2CCOCC2)cc1 | inactive
55 | Fc1ccc(Cn2c(-c3cscn3)nc3ccccc32)c(Cl)c1 | inactive
56 | COC(=O)[C@@H]1OC(=O)[C@H]2O[C@@]23[C@@]1(C)CCC1[C@@]2(C)CCC(=O)C(C)(C)C2C[C@@H](OC(C)=O)[C@]13C (some centres not stated) | > 4 mM (inactive)
57 | NC1CSCC1O (configuration not stated) | > 4 mM (inactive)
58 | C[C@H]1CCCC(=O)CCC/C=C/c2cc(O)cc(O)c2C(=O)O1 | > 4 mM (inactive)
59 | Nc1cccc(S(=O)(=O)N2CCCC2)c1 | > 4 mM (inactive)
60 | Cc1ccc(C)n1NC(=O)c1ccco1 | > 4 mM (inactive)
61 | Cc1nnc(Nc2cccnc2)[nH]c1=O | > 4 mM (inactive)
62 | NC(=O)CSc1ccccn1 | > 4 mM (inactive)
63 | O=CN1CCN(C(=O)c2ccccc2Cl)CC1 | > 4 mM (inactive)
64 | Cn1nc(-c2ccccc2)cc1N | > 4 mM (inactive)
65 | CCP(=O)(CC)c1cccc(C)c1 | > 4 mM (inactive)
66 | O=c1cccc2n1C[C@H]1CNCC2C1 | > 4 mM (inactive)
67 | Cc1[nH]c2ccccc2c1C(=O)CSc1ncn[nH]1 | > 4 mM (inactive)
68 | O=C1CN(C(=O)c2ccccc2F)c2ccccc2N1 | > 4 mM (inactive)
69 | Oc1ccc(C(=S)N2CCOCC2)cc1 | > 4 mM (inactive)
70 | CCOC(=O)c1cnc2n(c1=O)CCS2 | > 4 mM (inactive)
71 | CNC(=O)C1=NCCCc2cc(OC)c(OC)cc21 | > 4 mM (inactive)
72 | CCNC(=S)NS(=O)(=O)c1ccccc1 | > 4 mM (inactive)
73 | COc1cc(-c2nnc(NC(C)=O)o2)cc(OC)c1OC | > 4 mM (inactive)
74 | O=C(c1ccc(F)cc1)N1CCN(c2ncccn2)CC1 | > 4 mM (inactive)
75 | COc1cc(/C=C/C(=O)O)cc(OC)c1OC | > 4 mM (inactive)

Row | SMILES | Kd
76 | CC(=O)Oc1ccc(N2C(=O)C3C4C=CC(O4)C3C2=O)cc1 (configuration not stated) | > 4 mM (inactive)
77 | C/C=C(\C)c1nnc(NC(=O)c2ccco2)s1 | > 4 mM (inactive)
78 | CCOC(=O)C1=C(C)N2CCN=C2S1 | > 4 mM (inactive)
79 | O=C(O)c1ccc(-n2ccnc2)cc1 | > 4 mM (inactive)
80 | Nc1c(C(=O)O)sc2ncccc12 | > 4 mM (inactive)
81 | Cn1c(=O)c2cn3ncccc3c2n(C)c1=O | > 4 mM (inactive)
82 | NC(=O)CSc1nc2ncnc(N)c2[nH]1 | > 4 mM (inactive)
83 | O=C(O)C1C(=O)NCC1c1ccccc1 (configuration not stated) | > 4 mM (inactive)
84 | COc1ccc(NC(=O)c2ccc[n+]([O-])c2)cc1 | > 4 mM (inactive)
85 | Cc1cc(O)c(C=O)c(O)c1C(=O)O | > 4 mM (inactive)
86 | O=c1/c(=C/c2cccs2)sc2ncnn12 | > 4 mM (inactive)
87 | S=c1[nH]cnc2sccc12 | > 4 mM (inactive)
88 | NC(=O)CSc1nc2ccccc2[nH]1 | > 4 mM (inactive)
89 | COc1ccc(-c2oc3ccccc3c(=O)c2O)cc1OC | > 4 mM (inactive)
90 | COC(=O)C[C@H]1C(C)(C)C(=O)[C@@H]2CC3=C4CC(=O)O[C@@H](c5ccoc5)[C@]4(C)CCC3C1(C)C2=O (some centres not stated) | > 4 mM (inactive)
91 | Cc1ccccc1NC(=O)c1ccccc1 | > 4 mM (inactive)
92 | COc1nc(-c2ccccc2)ccc1-c1noc(C)n1 | > 4 mM (inactive)
93 | O=C(Nc1ccncc1)c1cncc(Br)c1 | > 4 mM (inactive)
94 | CC(C)=NNC(=O)c1ccccc1 | > 4 mM (inactive)
95 | CCOC(=O)c1c(C)n([O-])c2ccccc2[n+]1=O | > 4 mM (inactive)
96 | CC(C)[C@@H]1CC[C@@H](C)C[C@H]1O | > 4 mM (inactive)
97 | CSc1nnc(-c2ccccc2NC(C)=O)o1 | > 4 mM (inactive)
98 | Cc1cc(=O)n2[nH]c(N)nc2n1 | > 4 mM (inactive)
99 | CC(=O)OC1CCC2(O)CC1(C)CCC1C2CC1(C)C (configuration not stated) | > 4 mM (inactive)
100 | CC(=O)c1cccc(NS(=O)(=O)N(C)C)c1 | > 4 mM (inactive)

Row | SMILES | Kd
101 | Cc1ccc(-c2nc(-c3cccnc3)no2)c(C)c1 | > 4 mM (inactive)
102 | CC[C@]12CCCN3CCc4c(n(c5ccccc45)[C@](O)(C(=O)OC)C1)[C@@H]32 | > 4 mM (inactive)
103 | CCNC(CC(=O)Nc1ccc(O)cc1)C(=O)O (configuration not stated) | > 4 mM (inactive)
104 | COC(=O)c1ccc2ncccc2c1 | > 4 mM (inactive)
105 | CCOC(=O)c1sc(SC)c2c1CCCC2O (configuration not stated) | > 4 mM (inactive)
106 | Cc1cc(C(=O)Nc2cccnc2)no1 | > 4 mM (inactive)
107 | O=c1[nH]cc(N=Cc2ccc(F)cc2)c(=O)[nH]1 | > 4 mM (inactive)
108 | Cc1nnsc1C(=O)Nc1ccc(C(N)=O)cc1 | > 4 mM (inactive)
109 | O=C(Cc1cccs1)N1CCOCC1 | > 4 mM (inactive)
110 | COC(=O)c1ccccc1C | > 4 mM (inactive)
111 | Cc1cc(NC(=O)CSc2ccnc(=O)[nH]2)no1 | > 4 mM (inactive)
112 | Cc1c(N=CN(C)C)c(=O)n(-c2ccccc2)n1C | > 4 mM (inactive)
113 | CC12CCC3C(CC3(C)C)C(C)(CCC1=O)O2 (configuration not stated) | > 4 mM (inactive)
114 | CC(=O)N1CCC(NC2CCCCCC2)CC1 | > 4 mM (inactive)
115 | COc1ccccc1-c1noc(-c2ccco2)n1 | > 4 mM (inactive)
116 | COc1cc(/C=C2\SC(=S)NC2=O)ccc1O | > 4 mM (inactive)
117 | COc1ccc(NC(=O)/C=N/O)cc1 | > 4 mM (inactive)
118 | O=C(O)c1scc2c1CCCC2 | > 4 mM (inactive)
119 | CCc1nnc(NC(C)=O)s1 | > 4 mM (inactive)
120 | CN1C(=O)C(Cc2c[nH]c3ccccc23)C(=O)N(C)C1=O | > 4 mM (inactive)
121 | Cc1ccc(NS(=O)(=O)N2CCOCC2)cc1 | inactive
122 | CN(C)C(=O)c1ccc(-c2n[nH]c(=O)c3ccccc23)cc1 | > 4 mM (inactive)
